Experimental data from patent US10907168B2, “Jasmonic acid pathway activator” (MEDICAGO INC., priority 2015, dated 2021).

Experiments:
[1] = test system: 33-kDa pathogen-inducible PR-2 protein; experiment: 33-kDa PR-2 protein accumulation, immunodetection and densitometry; format: in vivo, Nicotiana benthamiana; details: non-infiltrated leaves; sprayed at 0.5 or 1 mM; ANOVA P>0.05
Source text: FIGS. 2a-2c show the effect of MeJA treatment on PR-2 protein accumulation, agrobacteria numbers and transcript numbers of the two A. tumefaciens virulence proteins VirB1 and VirE1 in N. benthamiana leaves. […] Immunoblot signals were quantified using the Phoretix 2-D Expression software v. 2005 (NonLinear USA) after scanning nitrocellulose membranes with a Microtek ScanMaker II digitalizer (Microtek Laboratory). Data are the mean of three leaf replicates±SE. An arbitrary value of 1.0 was assigned to PR-2 level in control healthy leaves. […] Data are expressed as log numbers of colony-forming units (CFU) on agar plates and each point is the mean of five independent (leaf replicate) values±SE. […]
Whole leaf proteins were extracted from three 1-cm^2 leaf discs in 400 μl of ice-cold 50 mM Tris-HCl, pH 7.5, containing 150 mM NaCl, by disrupting the leaf samples with tungsten carbide beads (Qiagen, Mississauga ON, Canada) in a Mini-Beadbeater apparatus (BioSpec, Bartlesville Okla., USA). […] RuBisCO small subunit was detected using polyclonal IgG raised in rabbit against a synthetic small subunit peptide (Agrisera, Vännäs, Sweden) and alkaline phosphatase-conjugated goat anti-rabbit IgG as secondary antibodies (Sigma-Aldrich). […] C5-1 light and heavy chains were detected with alkaline phosphatase-conjugated goat anti-mouse IgG antibodies (Sigma-Aldrich).

A. tumefaciens = experiment: Bacterial counts (CFU) in agroinfiltrated leaves; format: in vivo, Agrobacterium tumefaciens; details: control and treated leaves; after four or six days post-infiltration
Source text: Two gene vectors were used for the agroinfiltration assays: an engineered pcambia2300 vector encoding the light and heavy chains of C5-1 fused to an N-terminal signal peptide sequence for cellular secretion (see Goulet et al., 2012 for details on gene construct); and the original (“empty”) pcambia2300 binary vector (CAMBIA, Canberra, Australia) as a control for agroinfection. The two binary vectors were electroporated into A. tumefaciens strain LBA4404 and the cultures were maintained in Luria-Bertani (LB) medium supplemented with 50 μg/ml kanamycin and 50 μg/ml rifampicin. For infiltration, bacteria were grown to stable phase at 28° C. to an OD600 of 1.0 and collected by centrifugation at 2,000 g. The bacterial pellets were resuspended in 10 mM 2-[N-morpholino] ethanesulfonic acid] (MES) buffer, pH 5.8, containing 100 μM acetosyringone and 10 mM MgCl2. Leaf infiltration was performed using a needle-less syringe as described earlier (D'Aoust et al., 2009), after mixing the C5-1 antibody (or empty vector) agrobacterial suspension with an equal volume of bacterial suspension carrying a binary vector for the protein silencing suppressor p19 (Voinnet et al., 2003). […] Bacterial loads in leaves were determined by the counting of CFU on LB agar plates coated with bacteria recovered at different moments from the third main stem leaf. […]

[2] = test system: cathepsin L-like C1A Cys proteases; experiment: Protease assay in leaf crude extracts, Z-Phe-Arg-MCA substrate; format: in vivo, Nicotiana benthamiana; details: three tested doses (0.5, 1, 2 mM), seven days post-treatment, ANOVA P>0.05
Description: Forty-two day-old N. benthamiana plants grown in greenhouse were used for the experiments. Each plant was sprayed evenly with 50 ml of 0.5 mM, 1 mM or 2 mM MeJA in water containing 0.1% (v/v) Triton X-100 (Sigma-Aldrich, Mississauga ON, Canada), or with 50 ml of 1 mM arachidonic acid (Girard et al., 2007) in the same solvent, and transferred for seven days in a Conviron growth chamber (Conviron, Winnipeg MB, Canada). Plants sprayed with 50 ml of 0.1% (v/v) Triton X-100 in water were used in parallel as negative controls to avoid confounding effects due to experimental conditions. […]
Whole leaf proteins were extracted from three 1-cm^2 leaf discs in 400 μl of ice-cold 50 mM Tris-HCl, pH 7.5, containing 150 mM NaCl, by disrupting the leaf samples with tungsten carbide beads (Qiagen, Mississauga ON, Canada) in a Mini-Beadbeater apparatus (BioSpec, Bartlesville Okla., USA). […] RuBisCO small subunit was detected using polyclonal IgG raised in rabbit against a synthetic small subunit peptide (Agrisera, Vännäs, Sweden) and alkaline phosphatase-conjugated goat anti-rabbit IgG as secondary antibodies (Sigma-Aldrich). RuBisCO large subunit was detected using polyclonal IgG raised in hen against a synthetic large subunit peptide (Agrisera) and alkaline phosphatase-conjugated goat anti-chicken IgG as secondary antibodies (Sigma-Aldrich). […]

SMILES: CC/C=C\C[C@H]1C(=O)CC[C@@H]1CC(=O)OC [MeJA, methyl jasmonate]
- expression of 33-kDa PR-2 protein [1]: no significant effect
- bacterial counts (A. tumefaciens): less than a million
- cathepsin L-like activity [2]: no impact
